How the values were obtained:
[1] = target: Human LATS2 catalytic domain (Homo sapiens (Human), UniProt Q9NRM7); test: LATS2 High ATP HTRF Assay; type: biochemical; conditions: no asterisk: LATS2 High ATP HTRF Assay, 5000 μM ATP, 0.05 nM LATS2
Summary of the method: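 Phosphorylation of 0.5 μM STK S1 peptide at high ATP (5000 μM), 2 h at room temperature, by 0.05 nM LATS2 kinase domain/Mob1b complex after 10 min compound pre-incubation. Ki derived from HTRF-based IC50 (4-parameter logistic) by Cheng-Prusoff, ATP Km 105 μM.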

[2] = system: TAZ nuclear translocation in SW1990 cells; test: TAZ Nuclear Translocation Assay; type: cell-based; conditions: Homo sapiens, 4 hours
Summary of the method: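 SW1990 cells in RPMI1640/10% FBS treated with compounds for 4 h at 37 °C, then fixed and immunostained for TAZ with Hoechst nuclear counterstain and imaged by high-content imaging. Read-out is the nuclear/cytoplasmic-ring fluorescence ratio, normalized to DMSO (0%) and an inhibitor control (100%); EC50 from four-parameter fit.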

Sequence of Human LATS2 catalytic domain (Q9NRM7 553-1088): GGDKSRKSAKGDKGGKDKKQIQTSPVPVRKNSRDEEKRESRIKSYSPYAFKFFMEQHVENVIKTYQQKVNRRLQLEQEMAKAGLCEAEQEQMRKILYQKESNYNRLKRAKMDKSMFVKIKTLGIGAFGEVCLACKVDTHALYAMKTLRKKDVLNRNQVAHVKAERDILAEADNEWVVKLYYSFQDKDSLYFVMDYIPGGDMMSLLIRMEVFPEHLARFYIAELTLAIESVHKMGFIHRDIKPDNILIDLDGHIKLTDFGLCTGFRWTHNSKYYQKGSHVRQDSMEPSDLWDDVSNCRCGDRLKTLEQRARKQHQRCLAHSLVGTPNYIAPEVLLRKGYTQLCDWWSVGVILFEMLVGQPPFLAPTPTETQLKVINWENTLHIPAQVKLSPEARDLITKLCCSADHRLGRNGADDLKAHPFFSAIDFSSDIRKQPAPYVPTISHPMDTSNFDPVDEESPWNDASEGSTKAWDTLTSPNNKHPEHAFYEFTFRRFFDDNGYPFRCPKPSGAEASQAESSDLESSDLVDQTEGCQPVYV
Sequence of Human LATS2 catalytic domain (Q7L9L4 whole entry partner, the tested form may be a part): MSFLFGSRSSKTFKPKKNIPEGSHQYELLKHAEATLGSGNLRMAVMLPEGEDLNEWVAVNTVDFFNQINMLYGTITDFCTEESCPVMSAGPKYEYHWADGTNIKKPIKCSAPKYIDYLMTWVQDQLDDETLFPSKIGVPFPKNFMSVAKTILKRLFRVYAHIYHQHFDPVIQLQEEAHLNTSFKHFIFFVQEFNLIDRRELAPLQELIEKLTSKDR

Structure (SMILES) | Ki [1] [nM] | EC50 [2] [nM]
COc1[nH]ncc1-c1nc(N2CCC3(CCNC3)CC2)c2ccncc2n1 [Compound 257, 2-(5-methoxy-1H-pyrazol-4-yl)-4-(2,8-diazaspiro[4.5]decan-8-yl)pyrido[3,4-d]pyrimidine] | 8 | > 10000
CN(C)c1cncc2nc(-c3ccncc3)nc(N3CCC4(CCNC4)CC3)c12 [Compound 258, N,N-Dimethyl-2-(pyridin-4-yl)-4-(2,8-diazaspiro[4.5]decan-8-yl)pyrido[3,4-d]pyrimidin-5-amine] | 1.8 | 1900
CN1CCC2(CCN(c3nc(-c4ccncc4)nc4cncc(O)c34)CC2)C1 [Compound 259, 4-(2-methyl-2,8-diazaspiro[4.5]decan-8-yl)-2-(pyridin-4-yl)pyrido[3,4-d]pyrimidin-5-ol] | 1.6 | > 10000
Cc1[nH]ncc1-c1nc(N2CCC3(CCN(C)C3)CC2)c2ccnc(Cl)c2n1 [Compound 262, 8-chloro-2-(5-methyl-1H-pyrazol-4-yl)-4-(2-methyl-2,8-diazaspiro[4.5]decan-8-yl)pyrido[3,4-d]pyrimidine] | 0.028 | 250
COCCOc1cncc2nc(-c3ccncc3)nc(N3CCC4(CCNC4)CC3)c12 [Compound 263, 5-(2-methoxyethoxy)-2-(pyridin-4-yl)-4-(2,8-diazaspiro[4.5]decan-8-yl)pyrido[3,4-d]pyrimidine] | 0.11 | 1200
CN1CCC2(CCN(c3nc(-c4ccncc4)nc4c(Cl)nccc34)CC2)C1 [Compound 266, 8-chloro-4-(2-methyl-2,8-diazaspiro[4.5]decan-8-yl)-2-(pyridin-4-yl)pyrido[3,4-d]pyrimidine] | 0.37 | 1100
FCOc1cncc2nc(-c3ccncc3)nc(N3CCC4(CCNC4)CC3)c12 [Compound 267, 5-(fluoromethoxy)-2-(pyridin-4-yl)-4-(2,8-diazaspiro[4.5]decan-8-yl)pyrido[3,4-d]pyrimidine] | 0.028 | 360
CC(C)(O)CN1CCC2(CCN(c3nc(-c4ccncc4)nc4cncc(OC5COC5)c34)CC2)C1 [Compound 268, 2-Methyl-1-(8-(5-(oxetan-3-yloxy)-2-(pyridin-4-yl)pyrido[3,4-d]pyrimidin-4-yl)-2,8-diazaspiro[4.5]decan-2-yl)propan-2-o0] | 0.034 | 130
CN1CCC2(CCN(c3nc(-c4ccncc4)nc4cncc(OCC5COC5)c34)CC2)C1 [Compound 270, 4-(2-Methyl-2,8-diazaspiro[4.5]decan-8-yl)-5-(oxetan-3-ylmethoxy)-2-(pyridin-4-yl)pyrido[3,4-d]pyrimidine] | 0.15 | 860
COc1cncc2nc(-c3c[nH]nc3C)nc(N3CCC4(CCN(CC5COC5)C4)CC3)c12 [Compound 273, 5-methoxy-2-(3-methyl-1H-pyrazol-4-yl)-4-(2-(oxetan-3-ylmethyl)-2,8-diazaspiro[4.5]decan-8-yl)pyrido[3,4-d]pyrimidine] | 0.043 | 260
FC(F)Oc1cncc2nc(-c3ccncc3)nc(N3CCC4(CCNC4)CC3)c12 [Compound 274, 5-(difluoromethoxy)-2-(pyridin-4-yl)-4-(2,8-diazaspiro[4.5]decan-8-yl)pyrido[3,4-d]pyrimidine] | 0.02 | 180
COc1cnc(Cl)c2nc(-c3ccncc3)nc(N3CCC4(CCN(C)C4)CC3)c12 [Compound 275, 8-chloro-5-methoxy-4-(2-methyl-2,8-diazaspiro[4.5]decan-8-yl)-2-(pyridin-4-yl)pyrido[3,4-d]pyrimidine] | 0.02 | 310
COCC1CC2(CCN(c3nc(-c4ccncc4)nc4cncc(OC)c34)CC2)CN1 (stereo not drawn) [Compound 276, 5-methoxy-4-(3-(methoxymethyl)-2,8-diazaspiro[4.5]decan-8-yl)-2-(pyridin-4-yl)pyrido[3,4-d]pyrimidine] | 0.19 | 410
CN1CCC2(CCN(c3nc(-c4ccncc4)nc4cncc(OC5CC(C#N)C5)c34)CC2)C1 (stereo not drawn) [Compound 277, 3-((4-(2-Methyl-2,8-diazaspiro[4.5]decan-8-yl)-2-(pyridin-4-yl)pyrido[3,4-d]pyrimidin-5-yl)oxy)cyclobutane-1-carbonitrile] | 0.11 | 290
COc1cncc2nc(-c3ccncc3)nc(N3CCC4(CCN(CC(F)F)C4)CC3)c12 [Compound 280, 4-(2-(2,2-difluoroethyl)-2,8-diazaspiro[4.5]decan-8-yl)-5-methoxy-2-(pyridin-4-yl)pyrido[3,4-d]pyrimidine] | 0.039 | 570
c1cc(-c2cc3cnccc3c(N3CCC4(CCNC4)CC3)n2)ccn1 [Example 199, 3-(Pyridin-4-yl)-1-(2,8-diazaspiro[4.5]decan-8-yl)-2,6-naphthyridine] | 3.3 | 6100

Second part, the molecule after the results:

Ki [1] [nM] | EC50 [2] [nM] | Structure (SMILES)
0.055 | 4000 | c1cc(-c2nc(N3CCC4(CCNC4)CC3)c3c(OC4COC4)cncc3n2)ccn1 [Compound 260, 5-(Oxetan-3-yloxy)-2-(pyridin-4-yl)-4-(2,8-diazaspiro[4.5]decan-8-yl)pyrido[3,4-d]pyrimidine]
0.1 | 580 | C#CCN1CCC2(CCN(c3nc(-c4ccncc4)nc4cnccc34)CC2)C1 [Compound 261, 4-(2-(prop-2-yn-1-yl)-2,8-diazaspiro[4.5]decan-8-yl)-2-(pyridin-4-yl)pyrido[3,4-d]pyrimidine]
0.026 | 170 | COc1cncc2nc(-c3c[nH]nc3C)nc(N3CCC4(CCN(C)C4)CC3)c12 [Compound 264, 5-methoxy-2-(3-methyl-1H-pyrazol-4-yl)-4-(2-methyl-2,8-diazaspiro[4.5]decan-8-yl)pyrido[3,4-d]pyrimidine]
0.047 | 240 | COc1cncc2nc(-c3c[nH]nc3C)nc(N3CCC4(CCN(CC(C)(C)O)C4)CC3)c12 [Compound 265, 1-(8-(5-methoxy-2-(3-methyl-1H-pyrazol-4-yl)pyrido[3,4-d]pyrimidin-4-yl)-2,8-diazaspiro[4.5]decan-2-yl)-2-methylpropan-2-ol]
0.034 | 210 | CN1CCC2(CCN(c3nc(-c4ccncc4)nc4cncc(OC5COC5)c34)CC2)C1 [Compound 269, 4-(2-Methyl-2,8-diazaspiro[4.5]decan-8-yl)-5-(oxetan-3-yloxy)-2-(pyridin-4-yl)pyrido[3,4-d]pyrimidine]
0.041 | 330 | C#CC(C)(O)CN1CCC2(CCN(c3nc(-c4ccncc4)nc4cnccc34)CC2)C1 (stereo not drawn) [Compound 271, 2-methyl-1-(8-(2-(pyridin-4-yl)pyrido[3,4-d]pyrimidin-4-yl)-2,8-diazaspiro[4.5]decan-2-yl)but-3-yn-2-ol]
0.31 | 1100 | Clc1nccc2c(N3CCC4(CCNC4)CC3)nc(-c3ccncc3)nc12 [Compound 272, 8-chloro-2-(pyridin-4-yl)-4-(2,8-diazaspiro[4.5]decan-8-yl)pyrido[3,4-d]pyrimidine trifluoro acetate]
4.5 | 5300 | COc1cncc2nc(-c3ccncc3)nc(N3CCC4(CCNC4=O)CC3)c12 [Compound 279, 8-(5-methoxy-2-(pyridin-4-yl)pyrido[3,4-d]pyrimidin-4-yl)-2,8-diazaspiro[4.5]decan-1-one]

— patent US20240174696A1, “2,8-DIAZASPIRO[4.5]DECANE COMPOUNDS” (Genentech, Inc., priority 2021, published 2024)
